Consider 10 compounds from patent US5948792A, “Fluorine-containing 1,4-disubstituted piperidine derivatives” (Banyu Pharmaceutical Co., Ltd., priority 1996, dated 1999).

The target of one test is T1, Muscarinic M2 receptor (Homo sapiens, UniProt P08172).
T1 construct: purchased Receptor Biology, Inc; host or cells: CHO cells (membranes)
T1 sequence (P08172 1-466): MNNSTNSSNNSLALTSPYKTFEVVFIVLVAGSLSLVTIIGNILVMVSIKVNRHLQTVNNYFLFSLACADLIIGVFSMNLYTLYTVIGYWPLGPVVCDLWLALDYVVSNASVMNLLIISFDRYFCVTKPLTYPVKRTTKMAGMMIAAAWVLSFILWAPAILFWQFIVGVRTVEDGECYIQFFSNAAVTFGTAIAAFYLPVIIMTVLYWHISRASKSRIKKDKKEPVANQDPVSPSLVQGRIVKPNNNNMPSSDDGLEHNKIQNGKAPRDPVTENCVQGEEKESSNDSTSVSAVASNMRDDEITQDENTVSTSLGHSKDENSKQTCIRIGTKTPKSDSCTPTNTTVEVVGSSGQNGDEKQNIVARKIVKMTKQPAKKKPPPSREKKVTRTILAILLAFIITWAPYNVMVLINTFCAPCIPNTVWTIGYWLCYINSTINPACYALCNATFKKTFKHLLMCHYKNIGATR
Put plainly: Inhibition of binding of [3H]-N-methylscopolamine to muscarinic M2 receptor. Conditions: CHO cell membranes expressing cloned human receptor; 0.2 nM [3H]-N-methylscopolamine, pH 7.4, 2 hours, 25° C; read-out: Ki M2 (inhibitory effects on binding to muscarinic M2 receptor). Here is the method:
(§1) Tests on Inhibition of Binding to Muscarinic Receptors
(§2) These tests were performed according to a modification of the method of Hargreaves et al. (Br. J. Pharmacol. 107: 494-501, 1992). Membranes from CHO cells expressing cloned human m1-m5 (Receptor Biology, Inc.) were incubated with 0.2 nM [^3 H]-N-methylscopolamine and each a compound of the present invention to be tested in 0.5 ml of 50 mM Tris-HCl-10 mM MgCl2 -1 mM EDTA (pH 7.4) for 2 hours at 25° C. Free and membrane-bound [^3 H]-N-methylscopolamine were separated by filtration over glass filters (UniFilter-GF/C; Packard Instruments Co., Inc.) using cell harvester (Filtermate™ 196; Packard Instruments Co., Inc.). Then the filter was washed four times with 1 ml of ice-cold Tris-HCl (pH 7.4) and dried at 50° C. After adding a scintillator (Microscinti 0; Packard Instruments Co., Inc.), the radioactivity was counted by a liquid scintillation counter (TopCount™; Packard Instruments Co., Inc.). Non-specific binding was measured in the presence of 1 μM N-methylscopolamine.

Test [1] concerns the target T2, Muscarinic M3 receptor (Homo sapiens, UniProt P20309).
T2 construct: purchased Receptor Biology, Inc; host or cells: CHO cells (membranes)
Put plainly: Inhibition of binding of [3H]-N-methylscopolamine to muscarinic M3 receptor. The conditions noted are these: for Ki: CHO cell membranes expressing cloned human receptor, 0.2 nM [3H]-N-methylscopolamine, pH 7.4, 2 hours, 25° C, read-out: Ki M3 (inhibitory effects on binding to muscarinic M3 receptor); for M2/M3 (ratio of binding Ki): selectivity ratio of Ki values. Here is the method:
as §1, §2

For another test, the target named is T3, M2 receptor (Rattus norvegicus, UniProt P10980).
T3 construct: the right atrium was isolated; from tissue; host or cells: isolated right atrium of male SD strain rat
T3 sequence (P10980 1-466): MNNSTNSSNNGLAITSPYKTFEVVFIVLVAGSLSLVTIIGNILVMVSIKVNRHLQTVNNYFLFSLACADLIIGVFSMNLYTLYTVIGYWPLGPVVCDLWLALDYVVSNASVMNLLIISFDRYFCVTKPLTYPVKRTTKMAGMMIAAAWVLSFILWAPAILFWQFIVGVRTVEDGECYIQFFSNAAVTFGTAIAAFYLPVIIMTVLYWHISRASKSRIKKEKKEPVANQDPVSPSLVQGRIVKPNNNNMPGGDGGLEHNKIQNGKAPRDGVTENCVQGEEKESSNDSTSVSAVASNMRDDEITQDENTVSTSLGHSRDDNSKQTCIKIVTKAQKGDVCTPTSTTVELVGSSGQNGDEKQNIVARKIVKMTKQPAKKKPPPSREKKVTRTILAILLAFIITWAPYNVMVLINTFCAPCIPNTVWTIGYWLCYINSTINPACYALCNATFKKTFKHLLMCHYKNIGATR
Put plainly: Antagonism to M2 receptor in an isolated rat right atrium (in vitro). The test is classed as cell-based. The conditions noted are these: carbachol-induced decrease in heart rate. Here is the method: (§3) Tests for Antagonism to Muscarinic Receptors (in vitro)
1) Tests for Antagonism to M2 receptor in an Isolated Rat Right Atrium
These tests were performed according to a conventional method. A male SD strain rat (weighing 300-500 g) was killed by exsanguination, and the right atrium was isolated. This preparation was isometrically suspended in organ bath filled with 20 ml of Krebs-Henseleit solution (gassed with 95% O2 -5% CO2 and kept at 32° C.) with an initial tension of 0.5 g. The heart rate was recorded with a heart rate counter. After the preparation was equilibrated for 30 minutes, carbachol (10^-9 to 10^-6 M) was cumulatively administered in three-fold increasing doses. Thus, a decrease in heart rate was measured to obtain a dose-response curve for the control experiment. After the preparation was washed with fresh solution to restore the heart rate, a test compound was administered thereto. Ten minutes later, carbachol was cumulatively administered again. Responses to carbachol were expressed as percentages based on the heart rate before administration of carbachol as 100%. The antagonistic potency (KB value) of the test compound was determined from the degree of shift of the dose-response curve obtained by treatment with individual test compound of the present invention.

In the next test the target is T4, airway M3 receptor (Rattus norvegicus, UniProt P08483).
T4 construct: the trachea was isolated; from tissue; host or cells: isolated trachea of male SD strain rat
Briefly: Antagonism to the airway M3 receptor in an isolated rat trachea (in vitro). The test is classed as cell-based. The method, then:
as §3
2) Tests for Antagonism to the Airway M3 Receptor in an Isolated Rat Trachea
These tests were performed according to a conventional method. A male SD strain rat (weighing 300-500 g) was killed by exsanguination, and the trachea was isolated. Annular segments (2 mm wide) were cut out from the trachea and cut transversely at the anterior cartilage part to make open ring preparation. A preparation was suspended in a Magnus tube filled with 5 ml of Krebs-Henseleit solution (gassed with 95% O2 -5% CO2 and kept at 32° C.) with an initial tension of 1.0 g and a resting tension of 0.6 g. The tension of the preparation was recorded isometrically. After being equilibrated for an hour, the preparation was made to contract twice by treatment with 10^-4 M carbachol, and the second contraction induced by carbachol was used as the reference contraction. After the preparation was washed with fresh solution to be restored to the base line, a test compound was administered thereto (or no treatment was given). Ten minutes later, carbachol (10^-8 to 10^-3 M) was cumulatively administered in three-fold increasing doses to obtain a dose-response curve. The dose-response curve was plotted by expressing responses as percentages based on the reference contraction of the preparation as 100%. The antagonistic potency (K^B value) of the test compound was determined from the degree of shift of the dose-response curve obtained by treatment with the test compound.

The target in test [2] is T5, Muscarinic M3 Receptor (Rattus norvegicus, UniProt P08483).
T5 construct: male rats of the Sprague-Dawley strain; from tissue; host or cells: airways of living male Sprague-Dawley rats (in vivo)
Briefly: Bronchodilation in rats (i.v.), inhibition of acetylcholine-induced increase in airway resistance. The test is classed as in vivo. Conditions: iv, 5 min, acetylcholine 50 μg/kg i.v. 5 minutes after test compound, read-out: Inhibition of Airway Contraction ED50 iv. The method, then: Tests for Antagonism Against Muscarinic M3 Receptor (in vivo)
1-A) Tests for Bronchodilation in Rats (i.v.).
Eight- to eleven-weeks-old male rats of the Sprague-Dawley strain, weighing 380-420 g, were anesthetized with urethane (750 mg/kg. i.p.) and α-chloralose (37.5 mg/kg, i.p.). The bronchus of each rat was intubated, and the right jugular vein was cannulated for drug administration. […] To evoke an increase in airway resistance, acetylcholine (50 μg/kg, i.v.) was administered to the animals. The acetylcholine-induced airway resistance increase was measured 5 minutes before and 5 minutes after administration of test compound, and the ratio of the airway resistance of the latter to the former was calculated. In controls, isotonic sodium chloride solution was used in place of the test compounds and otherwise identical procedures were repeated, the calculated ratio being set to be 100%.

T2 sequence (P20309 whole entry): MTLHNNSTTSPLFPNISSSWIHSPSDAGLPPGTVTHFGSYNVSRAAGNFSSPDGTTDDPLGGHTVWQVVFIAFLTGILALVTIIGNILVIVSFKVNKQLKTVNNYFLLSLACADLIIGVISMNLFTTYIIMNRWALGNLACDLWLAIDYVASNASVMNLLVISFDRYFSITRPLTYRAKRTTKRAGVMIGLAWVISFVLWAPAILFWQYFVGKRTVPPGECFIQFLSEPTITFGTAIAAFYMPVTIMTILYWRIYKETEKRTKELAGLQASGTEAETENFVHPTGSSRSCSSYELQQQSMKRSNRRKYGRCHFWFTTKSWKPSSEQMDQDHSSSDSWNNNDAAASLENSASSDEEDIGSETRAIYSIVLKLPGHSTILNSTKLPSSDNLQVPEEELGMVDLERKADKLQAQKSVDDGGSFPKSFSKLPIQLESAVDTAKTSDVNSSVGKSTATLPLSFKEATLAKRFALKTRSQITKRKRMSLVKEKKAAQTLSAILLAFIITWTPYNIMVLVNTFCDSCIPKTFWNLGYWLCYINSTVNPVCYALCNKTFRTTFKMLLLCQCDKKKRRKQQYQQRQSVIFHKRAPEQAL
T4 sequence (P08483 whole entry): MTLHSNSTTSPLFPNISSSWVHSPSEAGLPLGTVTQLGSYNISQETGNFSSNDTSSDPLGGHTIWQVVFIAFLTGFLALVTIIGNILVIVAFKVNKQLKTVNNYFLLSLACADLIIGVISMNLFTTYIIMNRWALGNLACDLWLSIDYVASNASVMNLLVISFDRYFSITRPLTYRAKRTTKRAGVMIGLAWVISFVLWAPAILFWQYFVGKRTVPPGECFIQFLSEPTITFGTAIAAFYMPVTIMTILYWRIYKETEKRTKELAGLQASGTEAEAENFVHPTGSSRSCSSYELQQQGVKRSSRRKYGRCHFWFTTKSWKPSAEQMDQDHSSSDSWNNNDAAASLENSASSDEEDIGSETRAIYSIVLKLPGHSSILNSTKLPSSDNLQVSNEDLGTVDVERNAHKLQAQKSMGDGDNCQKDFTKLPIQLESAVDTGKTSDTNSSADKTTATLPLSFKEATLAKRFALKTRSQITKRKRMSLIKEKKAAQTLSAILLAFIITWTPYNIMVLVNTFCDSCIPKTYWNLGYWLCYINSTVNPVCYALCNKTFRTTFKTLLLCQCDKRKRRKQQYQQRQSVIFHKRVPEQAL
T5 sequence (P08483 whole entry): as above

Turning to `COc1cc(N)nc(CN2CCC(NC(=O)[C@](O)(c3ccccc3)[C@@H]3CCC(F)(F)C3)CC2)c1.Cl.Cl` [Example 21, (2R)-N-[1-(6-amino-4-methoxypyridin-2-ylmethyl)piperidin-4-yl]-2-[(1R)-3,3-difluorocyclopentyl]-2-hydroxy-2-phenylacetamide dihydrochloride], the Ki on Muscarinic M2 receptor was determined as 50 µM. For the same compound, on Muscarinic M3 receptor [1], the Ki amounted to 0.022 µM and the “M2/M3 (ratio of binding Ki)” value is 2300.

On to `O=C(NC1CCN(Cc2ccoc2)CC1)[C@](O)(c1ccccc1)[C@@H]1CCC(F)(F)C1` [Example 12, (2R)-N-[1-(3-furylmethyl)piperidin-4-yl]-2-[(1R)-3,3-difluorocyclopentyl]-2-hydroxy-2-phenylacetamide], for which the inhibition constant (Ki) at Muscarinic M2 receptor amounted to 8.6 µM.

As to `COc1cc(N)cc(CN2CCC(NC(=O)[C@](O)(c3ccccc3)[C@@H]3CCC(F)(F)C3)CC2)c1.Cl.Cl` [Example 31, (2R)-N-[1-(3-amino-5-methoxybenzyl)piperidin-4-yl]-2-[(1R)-3,3-difluorocyclopentyl]-2-hydroxy-2-phenylacetamide dihydrochloride], the inhibition constant (Ki) on Muscarinic M2 receptor came out at 10 µM. Further, at Muscarinic M3 receptor [1], the inhibition constant Ki is 0.019 µM and the “M2/M3 (ratio of binding Ki)” value was 520.

For the compound `Cc1cccc(CN2CCC(NC(=O)[C@](O)(c3ccccc3)[C@@H]3CCC(F)(F)C3)CC2)n1` [Example 10, (2R)-N-[1-(6-methylpyridin-2-ylmethyl)piperidin-4-yl]-2-[(1R)-3,3-difluorocyclopentyl]-2-hydroxy-2-phenylacetamide], the Ki at Muscarinic M2 receptor stood at 17 µM. Moreover, on Muscarinic M3 receptor [1], the Ki was 0.0089 µM and the “M2/M3 (ratio of binding Ki)” value worked out at 1900.

As to `CC(C)=CCCN1CCC(NC(=O)[C@](O)(c2ccccc2)[C@@H]2CCC(F)(F)C2)CC1` [Example 1, (2R)-N-[1-(4-methyl-3-pentenyl)piperidin-4-yl]-2-[(1R)-3,3-difluorocyclopentyl]-2-hydroxy-2-phenylacetamide], the Ki at Muscarinic M2 receptor was found to be 3.2 µM; at Muscarinic M3 receptor [1], 0.0055 µM. For the same compound, the “M2/M3 (ratio of binding Ki)” value at Muscarinic M3 receptor [1] was found to be 590. The Kb at M2 receptor is 1 µM; at airway M3 receptor (isolated rat trachea, carbachol-induced contraction) it was 0.0063 µM. In addition, on airway M3 receptor (selectivity ratio of KB values, right atrium M2 / trachea M3), the “M2/M3 (ratio of KB)” value worked out at 160. For the same compound, the ED50 on Muscarinic M3 Receptor [2] turned out to be 0.033 mg/kg.

Take `CN1C2CCC1CC(OC(=O)C(CO)c1ccccc1)C2` (stereo not shown) [atoropine, reference compound]: the ED50 at Muscarinic M3 Receptor [2] stood at 0.0043 mg/kg.

Consider `Nc1cc(N)cc(CN2CCC(NC(=O)[C@](O)(c3ccccc3)[C@@H]3CCC(F)(F)C3)CC2)c1` [Example 27, (2R)-N-[1-(3,5-diaminobenzyl)piperidin-4-yl]-2-[(1R)-3,3-difluorocyclopentyl]-2-hydroxy-2-phenylacetamide], for which the inhibition constant (Ki) on Muscarinic M2 receptor came to 4.2 µM. At Muscarinic M3 receptor [1], the inhibitory constant (Ki) amounted to 0.02 µM and the “M2/M3 (ratio of binding Ki)” value was 210.

Take `Cc1cc(N)cc(CN2CCC(NC(=O)[C@](O)(c3ccccc3)[C@@H]3CCC(F)(F)C3)CC2)c1.Cl.Cl` [Example 22, (2R)-N-[1-(3-amino-5-methylbenzyl)piperidin-4-yl]-2-[(1R)-3,3-difluorocyclopentyl]-2-hydroxy-2-phenylacetamide dihydrochloride]: the inhibition constant Ki at Muscarinic M2 receptor worked out at 13 µM. At Muscarinic M3 receptor [1], the inhibition constant Ki stood at 0.019 µM and the “M2/M3 (ratio of binding Ki)” value was determined as 680.

Take `COc1cccc(CN2CCC(NC(=O)[C@](O)(c3ccccc3)[C@@H]3CCC(F)(F)C3)CC2)c1` [Example 15, (2R)-N-[1-(3-methoxybenzyl)piperidin-4-yl]-2-[(1R)-3,3-difluorocyclopentyl]-2hydroxy-2-phenylacetamide]: the inhibition constant Ki at Muscarinic M2 receptor is 1 µM.

Take `O=C(NC1CCN(Cc2ccccn2)CC1)[C@](O)(c1ccccc1)[C@@H]1CCC(F)(F)C1` [Example 14, (2R)-N-[1-(2-pyridylmethyl)piperidin-4-yl]-2-[(1R)-3,3-difluorocyclopentyl]-2-hydroxy-2-phenylacetamide]: the Ki on Muscarinic M2 receptor turned out to be 1.4 µM. For the same compound, on Muscarinic M3 receptor [1], the Ki turned out to be 0.01 µM and the “M2/M3 (ratio of binding Ki)” value turned out to be 140.
